We go through twelve compounds from patent publication US9636339B2, “Phenyl-dihydropyridine derivatives as aldosterone synthase inhibitors” (Hoffmann-La Roche Inc., priority 2013, dated 2017).

The target in experiment [1] is human CYP11B1 (Homo sapiens (Human), UniProt P15538). Nature of the experiment: G-402 cellular enzyme assay, human CYP11B1 (cortisol release). In kind it is cell-based. The settings on record: G-402 cells, 1 μM Deoxycortisol. The source says:
(§1) Herein we identified the use of the G-402 cell line as a host cell to ectopically express (transiently or stably) enzymes of the CYP11 family. Specifically we developed stable G-402 cells expressing ectopically human CYP11B1, human CYP11B2, human CYP11A1, cynmolgus CYP11B1 or cynomolgus CYP11B2 enzyme activity. Importantly the identified cell line G-402 expresses co-factors (adrenodoxin and adrenodoxin reductase) important for the activity of the CYP11 family and no relevant enzyme activity of the CYP11 family (in comparison to H295R cells) was detected in these cells. Therefore the G-402 cell line is uniquely suited as a host cell for the ectopic expression of enzymes from the CYP11 family. G-402 cells can be obtained from ATCC (CRL-1440) and were originally derived from a renal leiomyoblastoma.
(§2) The expression plasmids contains the ORF for either human/cyno CYP11B1 or CYP11B2 under the control of a suitable promoter (CMV-promoter) and a suitable resistance marker (neomycin). Using standard techniques the expression plasmid is transfected into G-402 cells and these cells are then selected for expressing the given resistance markers. Individual cell-clones are then selected and assessed for displaying the desired enzymatic activity using 11-Deoxycorticosterone (Cyp11B2) or 11-Deoxycortisol (Cyp11B1) as a substrate.
(§3) G-402 cells expressing CYP11 constructs were established as described above and maintained in McCoy's 5a Medium Modified, ATCC Catalog No. 30-2007 containing 10% FCS and 400 μg/ml G418 (Geneticin) at 37° C. under an atmosphere of 5% CO2/95% air. Cellular enzyme assays were performed in DMEM/F12 medium containing 2.5% charcoal treated FCS and appropriate concentration of substrate (0.3-10 uM 11-Deoxycorticosterone, 11-Deoxycortisol or Corticosterone). For assaying enzymatic activity, cells were plated onto 96 well plates and incubated for 16 h. An aliquot of the supernatant is then transferred and analyzed for the concentration of the expected product (Aldosterone for CYP11B2; Cortisol for CYP11B1). The concentrations of these steroids can be determined using HTRF assays from CisBio analyzing either Aldosterone or Cortisol.
(§4) Inhibition of the release of produced steroids can be used as a measure of the respective enzyme inhibition by test compounds added during the cellular enzyme assay. The dose dependent inhibition of enzymatic activity by a compound is calculated by means of plotting added inhibitor concentrations (x-axes) vs. measured steroid/product level (y-axes). The inhibition is then calculated by fitting the following 4-parameter sigmoidal function (Morgan-Mercer-Flodin (MMF) model) to the raw data points using the least squares method:
(§5) [formula] wherein, A is the maximum y value, B is the EC50 factor determined using XLFit, C is the minimum y value and D is the slope value.
(§6) EC50 values for compounds claimed herein were tested with the G402-based assay system described. Cyp11B2 enzyme activity was tested in presence of 1 μM Deoxycorticosterone and variable amounts of inhibitors; Cyp11B1 enzyme activity was tested in presence of 1 μM Deoxycortisol and variable amounts of inhibitors.

Experiment [2] addresses human CYP11B2 (Homo sapiens (Human), UniProt P19099). Nature of the experiment: G-402 cellular enzyme assay, human CYP11B2 (aldosterone release). The settings on record: G-402 cells, 1 μM Deoxycorticosterone. In kind it is cell-based.
From the text: as §1, §2, §3, §4, §5, §6

In experiment [3] the test system is rat model of chronic kidney disease. The settings on record: cited from earlier work; for plasma aldosterone: FAD286: 4 weeks of treatment, spironolactone: 4 and 8 weeks of treatment; for angiotensin II and salt-stimulated PAI-1 mRNA expression: aorta and heart; for renal effects of angiotensin II and high salt (albuminuria, azotemia, renovascular hypertrophy, glomerular injury, PAI-1, osteopontin mRNA, tubulointerstitial fibrosis): rat, in vivo.

Experiment [4] deals with rats with experimental heart failure. Particulars: rat, in vivo; cited from earlier work.
The subject of experiment [5] is patients with primary aldosteronism. The settings on record: oral; cited from earlier work.

human CYP11B1, sequence (P15538 25-503): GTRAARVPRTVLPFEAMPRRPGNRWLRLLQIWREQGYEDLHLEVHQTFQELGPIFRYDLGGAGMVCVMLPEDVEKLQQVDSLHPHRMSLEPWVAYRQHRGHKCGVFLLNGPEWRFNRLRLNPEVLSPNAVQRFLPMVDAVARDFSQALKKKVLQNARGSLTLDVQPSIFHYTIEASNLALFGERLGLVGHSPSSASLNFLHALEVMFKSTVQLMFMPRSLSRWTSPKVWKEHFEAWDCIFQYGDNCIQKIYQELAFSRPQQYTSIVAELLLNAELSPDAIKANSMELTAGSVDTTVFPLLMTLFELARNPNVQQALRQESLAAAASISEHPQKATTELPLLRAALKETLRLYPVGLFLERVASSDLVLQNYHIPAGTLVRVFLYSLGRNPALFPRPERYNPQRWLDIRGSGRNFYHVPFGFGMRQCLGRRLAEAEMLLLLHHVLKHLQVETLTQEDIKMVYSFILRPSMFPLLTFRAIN
human CYP11B2, sequence (P19099 25-503): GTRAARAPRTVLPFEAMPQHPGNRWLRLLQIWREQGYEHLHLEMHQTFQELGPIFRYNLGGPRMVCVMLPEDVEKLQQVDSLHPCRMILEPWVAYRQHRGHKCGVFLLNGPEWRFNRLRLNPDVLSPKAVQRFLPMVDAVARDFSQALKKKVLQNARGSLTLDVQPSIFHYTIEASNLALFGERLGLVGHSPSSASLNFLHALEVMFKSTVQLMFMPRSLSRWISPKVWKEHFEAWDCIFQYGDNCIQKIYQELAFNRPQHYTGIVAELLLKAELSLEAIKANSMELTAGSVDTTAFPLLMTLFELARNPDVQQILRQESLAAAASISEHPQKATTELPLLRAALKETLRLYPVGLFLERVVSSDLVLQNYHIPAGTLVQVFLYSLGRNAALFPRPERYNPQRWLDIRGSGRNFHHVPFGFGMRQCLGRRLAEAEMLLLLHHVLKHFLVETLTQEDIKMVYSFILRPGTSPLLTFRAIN

Take `OCCC1CCCc2c(-c3ccc(C(F)(F)F)cc3F)cncc21` (racemic) [Example 24, (rac)-2-[4-[2-Fluoro-4-(trifluoromethyl)phenyl]-5,6,7,8-tetrahydroisoquinolin-8-yl]ethanol]: the concentration for a half-maximal effect (EC50) in experiment [1] stood at 85 nM; in experiment [2], 5 nM.
As to `CNC(=O)CC1CCCc2c(-c3ccc(C(F)(F)F)cc3F)cncc21` (racemic) [Example 25, (rac)-2-[4-[2-Fluoro-4-(trifluoromethyl)phenyl]-5,6,7,8-tetrahydroisoquinolin-8-yl]-N-methyl-acetamide], the EC50 in experiment [1] worked out at 1040 nM; in experiment [2], 11 nM.
Consider `CN(C)C(=O)CC1CCCc2c(-c3ccc(C(F)(F)F)cc3F)cncc21` (racemic) [Example 26, (rac)-2-[4-[2-Fluoro-4-(trifluoromethyl)phenyl]-5,6,7,8-tetrahydroisoquinolin-8-yl]-N,N-dimethyl-acetamide], for which the EC50 came to 3080 nM in experiment [1] and 32 nM in experiment [2].
Taken in the same sequence, the figures for `CCNC(=O)CC1CCCc2c(-c3ccc(C(F)(F)F)cc3F)cncc21` (racemic) [Example 29, (rac)-N-Ethyl-2-[4-[2-fluoro-4-(trifluoromethyl)phenyl]-5,6,7,8-tetrahydroisoquinolin-8-yl]acetamide] were 4080 nM and 212 nM.
For `O=C(CC1CCCc2c(-c3ccc(C(F)(F)F)cc3F)cncc21)NC1CC1` (racemic) [Example 30, (rac)-N-Cyclopropyl-2-[4-[2-fluoro-4-(trifluoromethyl)phenyl]-5,6,7,8-tetrahydroisoquinolin-8-yl]acetamide], in that order: 448 nM and 37 nM.
Take `O=C(CC1CCCc2c(-c3ccc(C(F)(F)F)cc3F)cncc21)NCC1CC1` (racemic) [Example 31, (rac)-N-(Cyclopropylmethyl)-2-[4-[2-fluoro-4-(trifluoromethyl)phenyl]-5,6,7,8-tetrahydroisoquinolin-8-yl]acetamide]: the 50% effective concentration (EC50) was 1780 nM in experiment [1] and 71 nM in experiment [2].
As to `COCCNC(=O)CC1CCCc2c(-c3ccc(C(F)(F)F)cc3F)cncc21` (racemic) [Example 32, (rac)-2-[4-[2-Fluoro-4-(trifluoromethyl)phenyl]-5,6,7,8-tetrahydroisoquinolin-8-yl]-N-(2-methoxyethyl)acetamide], the concentration giving a half-maximal response (EC50) amounted to 5060 nM in experiment [1] and 222 nM in experiment [2].
Taken in the same sequence, the figures for `CN(C)C(=O)CC1CCCc2c(-c3ccc(C(F)(F)F)cc3F)cncc21` (single isomer, unassigned; (+)) [Example 27, (+)-(R or S)-2-[4-[2-fluoro-4-(trifluoromethyl)phenyl]-5,6,7,8-tetrahydroisoquinolin-8-yl]-N,N-dimethyl-acetamide] were 1490 nM and 36 nM.
On to `CN(C)C(=O)CC1CCCc2c(-c3ccc(C(F)(F)F)cc3F)cncc21` (single isomer, unassigned; (-)) [Example 28, (−)-(R or S)-2-[4-[2-fluoro-4-(trifluoromethyl)phenyl]-5,6,7,8-tetrahydroisoquinolin-8-yl]-N,N-dimethyl-acetamide], for which the values for the EC50 in experiment [1] and in experiment [2] were 9110 nM and 133 nM, respectively.
For the compound `N#Cc1ccc([C@H]2CCCc3cncn32)cc1` [FAD286], in experiment [3], the plasma aldosterone entry was “reduced”; the “angiotensin II and salt-stimulated PAI-1 mRNA expression” value is recorded as “not”; the “renal effects of angiotensin II and high salt (albuminuria, azotemia, renovascular hypertrophy, glomerular injury, PAI-1, osteopontin mRNA, tubulointerstitial fibrosis)” value is “prevented”. For the same compound, in experiment [4], the “blood pressure and cardiovascular function and structure” value is “improved”; the “kidney function and morphology” value is “improve”.
With `N#Cc1ccc([C@H]2CCc3cncn32)c(F)c1` [LCI699], in experiment [5], the blood pressure result is reported as “mildly decreased”, the circulating aldosterone levels entry is “significantly lower” and the hypokalemia result was “corrected”.
In the case of `CC(=O)S[C@@H]1CC2=CC(=O)CC[C@]2(C)[C@H]2CC[C@@]3(C)[C@@H](CC[C@@]34CCC(=O)O4)[C@H]12` [spironolactone], in experiment [3], the plasma aldosterone entry was “increased”; the “angiotensin II and salt-stimulated PAI-1 mRNA expression” value is reported as “enhanced”; the “renal effects of angiotensin II and high salt (albuminuria, azotemia, renovascular hypertrophy, glomerular injury, PAI-1, osteopontin mRNA, tubulointerstitial fibrosis)” value is reported as “prevented”.

One may read the EC50 as the concentration that produces a half-maximal response.
